In ChEMBL document CHEMBL1649088, “Structural optimization of azadipeptide nitriles strongly increases association rates and allows the development of selective cathepsin inhibitors” (J Med Chem, 2011) one finds Ki, Ratio Ki and Activity data, which are given here for 19 molecules.

The structures appear in SMILES notation. Active and inactive are the calls of the source. No cut-off for these calls is given here.

One test deals with Cathepsin B (Homo sapiens, UniProt P07858). In words: Inhibition of human recombinant cathepsin B after 30 mins by spectrophotometric assay.
Another test addresses T1, Cathepsin K (Homo sapiens, UniProt P43235).
T1 sequence (P43235 whole entry): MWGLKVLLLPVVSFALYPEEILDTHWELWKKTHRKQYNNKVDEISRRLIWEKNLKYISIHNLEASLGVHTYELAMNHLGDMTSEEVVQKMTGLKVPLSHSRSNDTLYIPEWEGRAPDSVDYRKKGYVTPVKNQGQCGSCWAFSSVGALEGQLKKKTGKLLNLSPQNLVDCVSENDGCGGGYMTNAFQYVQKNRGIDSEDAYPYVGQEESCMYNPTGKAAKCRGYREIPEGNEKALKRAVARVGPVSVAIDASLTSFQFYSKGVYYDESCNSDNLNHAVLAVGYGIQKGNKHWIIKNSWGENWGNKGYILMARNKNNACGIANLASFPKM
The test is described as follows: Inhibition of human recombinant cathepsin K after 30 mins by spectrophotometric assay.

The next test addresses Cathepsin S (Homo sapiens, UniProt P25774). The test is described as follows: Inhibition of human cathepsin S after 30 mins by spectrophotometric assay.
The target in the next test is Procathepsin L (Homo sapiens, UniProt P07711). In words: Inhibition of human recombinant cathepsin L after 30 mins by spectrophotometric assay.
The species named for test [1] is Homo sapiens. In words: Selectivity ratio, ratio of Ki for human recombinant cathepsin L to Ki for human recombinant cathepsin K.
The species named for test [2] is Homo sapiens. The test is described as follows: Selectivity ratio, ratio of Ki for human recombinant cathepsin B to Ki for human recombinant cathepsin K.
In test [3] the target is T2, Cathepsin K (Homo sapiens) (UniProt P43235).
T2 sequence (whole entry): T1 sequence (P43235 whole entry)
The test is described as follows: Reversible inhibition of human recombinant cathepsin K at 300 nM preincubated for 30 mins by spectrophotometric assay.

For test [4], the species on record is Homo sapiens. In words: Selectivity ratio, ratio of Ki for human cathepsin S to Ki for human recombinant cathepsin K.

Sequence of Cathepsin S (P25774 whole entry): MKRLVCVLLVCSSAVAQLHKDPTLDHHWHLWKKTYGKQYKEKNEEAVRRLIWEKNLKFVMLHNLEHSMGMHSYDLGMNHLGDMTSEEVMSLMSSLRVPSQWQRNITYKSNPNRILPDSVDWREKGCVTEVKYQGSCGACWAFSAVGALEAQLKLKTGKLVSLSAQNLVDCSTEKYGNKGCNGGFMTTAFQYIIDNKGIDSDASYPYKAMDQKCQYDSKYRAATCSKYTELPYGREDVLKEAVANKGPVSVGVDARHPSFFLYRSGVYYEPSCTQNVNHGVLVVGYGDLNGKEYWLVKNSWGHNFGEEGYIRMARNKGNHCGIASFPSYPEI
Sequence of Procathepsin L (P07711 whole entry): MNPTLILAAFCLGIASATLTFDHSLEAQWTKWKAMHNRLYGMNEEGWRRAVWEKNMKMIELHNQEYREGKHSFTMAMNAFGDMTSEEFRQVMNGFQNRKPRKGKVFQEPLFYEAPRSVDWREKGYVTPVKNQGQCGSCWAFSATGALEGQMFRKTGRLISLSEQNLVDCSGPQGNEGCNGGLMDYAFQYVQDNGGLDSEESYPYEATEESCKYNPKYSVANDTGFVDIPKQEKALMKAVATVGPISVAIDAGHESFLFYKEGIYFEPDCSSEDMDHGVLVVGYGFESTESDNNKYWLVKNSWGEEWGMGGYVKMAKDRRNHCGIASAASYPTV

For the molecule `CC(C)C[C@H](NC(=O)Nc1ccc(-c2noc(-c3cccs3)n2)cc1)C(=O)NCC#N`, the Ki (in general, the dissociation constant of the complex between target and ligand, obtained from inhibition or displacement) on Cathepsin B was above 22000 nM; on Cathepsin K, 34 nM; at Cathepsin S it was 180 nM; at Procathepsin L it was 4700 nM.

As for `CC(C)C[C@H](NC(=O)NCc1ccc(-c2noc(-c3cccs3)n2)cc1)C(=O)N(C)N(C)C#N`, the inhibition constant (Ki) at Cathepsin B came out at 1.3 nM; at Cathepsin K, 0.072 nM; on Cathepsin S, 0.16 nM; at Procathepsin L it was 1.1 nM.

`CC(C)C[C@H](NC(=O)Nc1ccc(-c2noc(-c3cccs3)n2)cc1)C(=O)N(C)N(C)C#N`: the Ki on Cathepsin B came out at 2.4 nM; on Cathepsin K it was 0.022 nM; on Cathepsin S, 0.32 nM; on Procathepsin L, 4.4 nM.

As to `CC(C)C[C@H](NC(=O)c1ccc(-c2noc(-c3cccs3)n2)cc1)C(=O)NCC#N`, the Ki at Cathepsin B is above 22000 nM; on Cathepsin K, 2.9 nM; at Cathepsin S, 140 nM; at Procathepsin L, 940 nM. In addition, the Ratio Ki in the test listed under Homo sapiens [1] was determined as 300.

Turning to `CC(C)C[C@H](NC(=O)c1ccc(-c2noc(-c3cccs3)n2)cc1)C(=O)N(C)N(C)C#N`, the inhibition constant Ki on Cathepsin B stood at 0.36 nM; at Cathepsin K, 0.032 nM; at Cathepsin S, 0.15 nM; on Procathepsin L, 0.22 nM.

Consider `CC(C)C[C@H](NC(=O)NCc1ccccc1)C(=O)N(C)N(C)C#N`, for which the Ki was 0.65 nM on Cathepsin B, 0.011 nM on Cathepsin K, 0.2 nM at Cathepsin S and 0.39 nM at Procathepsin L.

Regarding `CN(C#N)N(C)C(=O)CNC(=O)OCc1ccccc1`, the inhibitory constant (Ki) at Cathepsin B was 840 nM; on Cathepsin K, 260 nM; at Cathepsin S, 800 nM; on Procathepsin L, 860 nM.

Regarding `CC(C)[C@H](NC(=O)OCc1ccccc1)C(=O)N(C)N(C)C#N`, the inhibition constant Ki is 4.3 nM at Cathepsin B, 0.87 nM on Cathepsin K, 1.5 nM at Cathepsin S and 1.5 nM on Procathepsin L.

With `CC[C@H](C)[C@H](NC(=O)OCc1ccccc1)C(=O)N(C)N(C)C#N`, the inhibition constant (Ki) at Cathepsin B amounted to 0.88 nM; at Cathepsin K it was 0.46 nM; on Cathepsin S it was 0.83 nM; at Procathepsin L it was 2.6 nM.

Take `CC(C)C[C@H](NC(=O)Nc1ccccc1)C(=O)N(C)N(C)C#N`: the inhibition constant (Ki) at Cathepsin B came to 1.3 nM; on Cathepsin K, 0.017 nM; at Cathepsin S, 0.16 nM; on Procathepsin L, 0.045 nM.

For `CN(C#N)N(C)C(=O)[C@H](Cc1ccccc1)NC(=O)OCc1ccccc1`, the inhibition constant (Ki) on Cathepsin B was 0.68 nM; at Cathepsin K, 0.14 nM; at Cathepsin S, 0.51 nM; on Procathepsin L, 0.16 nM.

On to `C[C@H](NC(=O)OCc1ccccc1)C(=O)N(C)N(C)C#N`, for which the Ki at Cathepsin B came out at 55 nM; at Cathepsin K it was 33 nM; at Cathepsin S it was 9.1 nM; at Procathepsin L it was 480 nM.

Take `CC(C)C[C@@H](C(=O)N(C)N(C)C#N)N(C)C(=O)c1ccc(-c2noc(-c3cccs3)n2)cc1`: the Ki on Cathepsin B amounted to 510 nM; on Cathepsin K, 0.63 nM; at Cathepsin S, 140 nM; on Procathepsin L it was 2700 nM. Further, the values for the Ratio Ki in the test listed under Homo sapiens [2], in the test listed under Homo sapiens [1] and in the test filed under Homo sapiens [4] were 800, 4300 and 200, respectively. In addition, the result in test [3] was Active.

Regarding `CN(C#N)N(C)C(=O)[C@H](Cc1ccc(O)cc1)NC(=O)OCc1ccccc1`, the inhibition constant Ki on Cathepsin B turned out to be 0.38 nM; at Cathepsin K it was 0.16 nM; at Cathepsin S, 0.86 nM; at Procathepsin L, 0.36 nM.

As to `Cc1nc(-c2ccc(NC(=O)N[C@@H](CC(C)C)C(=O)N(C)N(C)C#N)cc2)no1`, the Ki came to 2.4 nM on Cathepsin B, 0.045 nM at Cathepsin K, 0.19 nM on Cathepsin S and 2 nM on Procathepsin L.

For the molecule `CC(C)C[C@H](NC(=O)OCc1ccccc1)C(=O)N(C)N(C)C#N`, the inhibition constant Ki at Cathepsin B came out at 0.43 nM; on Cathepsin K it was 0.064 nM; at Cathepsin S, 0.33 nM; on Procathepsin L, 0.9 nM.

On to `Cc1nc(-c2ccc(CNC(=O)N[C@@H](CC(C)C)C(=O)N(C)N(C)C#N)cc2)no1`, for which the Ki at Cathepsin B was 2.8 nM; at Cathepsin K, 0.11 nM; on Cathepsin S, 0.17 nM; on Procathepsin L it was 1.4 nM.

Take `CN(C#N)N(C)C(=O)[C@H](CC1CCCCC1)NC(=O)OCc1ccccc1`: the Ki is 0.48 nM on Cathepsin B, 0.071 nM at Cathepsin K, 0.2 nM at Cathepsin S and 0.4 nM at Procathepsin L.

Regarding `CC(C)C[C@@H](C(=O)NCC#N)N(C)C(=O)c1ccc(-c2noc(-c3cccs3)n2)cc1`, the Ki was above 22000 nM on Cathepsin B, 270 nM at Cathepsin K, above 22000 nM on Cathepsin S and above 22000 nM on Procathepsin L.
